Experimental data taken from patent US11261429B2, “Enriched and expanded human cord blood stem cells for treatment of hematological disorders” (ICAHN SCHOOL OF MEDICINE AT MOUNT SINAI, priority 2013, dated 2022).
Entries after “also recorded” stand apart in the source; their conditions may differ.

Key:
ALDH activity = ALDH activity (Aldefluor) in expanded CB CD34+ cells; format: cell-based, human; conditions: cytokines, 7 days
From the text: Increased ALDH activity is a characteristic of primitive hematopoietic cells and cancer stem cells (Hess et al., Functional Characterization of Highly Purified Human Hematopoietic Repopulating Cells Isolated According to Aldehyde Dehydrogenase Activity,” Blood 104:1648-1655 (2004); Lioznov et al., “Aldehyde Dehydrogenase Activity as a Marker for the Quality of Hematopoietic Stem Cell Transplants,” Bone Marrow Transplant 35:909-914 (2005); Storms et al., “Distinct Hematopoietic Progenitor Compartments are Delineated by the Expression of Aldehyde Dehydrogenase and CD34,” Blood 106:95-102 (2005); Aguila et al., “SALL4 is a Robust Stimulator for the Expansion of Hematopoietic Stem Cells,” Blood 118:576-585 (2011), which are hereby incorporated by reference in their entirety). To identify cell populations with high ALDH activity, an Aldefluor kit (StemCell Technologies Inc.) was used according to the manufacturer's instructions, Cells (1×10^6/ml) were suspended in assay buffer, then half of the cells were added to the Aldefluor substrate (test sample) and the remaining half was added to DEAB inhibitor (control sample). The test and control samples were incubated for 40 minutes at 37° C. Cells were subsequently stained with CD34-APC and/or CD117-PE mAbs or an isotype-matched IgG for an additional 20 minutes. Cells were washed and analyzed by a BD FACSCanto II Flow Cytometer.

NSG mice [1] = assay: Teratoma formation assay in NSG mice; format: in vivo; conditions: 1×10^6 re-isolated CD34+ cells subcutaneously, 8 weeks
Procedure: CD34+ cells (1×10^6) re-isolated from control cultures or cultures containing VPA or a similar number of ES cells were suspended in 100 μl of PBS. These cells were mixed with an equal volume of ice-cold Matrigel and injected subcutaneously into the right hind limb of three NSG mice per group (re-isolated CD34+ cells from control cultures, VPA-treated cultures, and ES cells). The mice were observed weekly for teratoma formation and sacrificed after 8 weeks. Teratomas were dissected, fixed, sectioned, and stained with H&E and examined morphologically (O'Connor et al., “Functional Assays for Human Embryonic Stem Cell Pluripotency,” Methods Mol Biol. 690:67-80 (2011), which is hereby incorporated by reference in its entirety).

NSG mice [2] = assay: Limiting dilution analysis of SCID-repopulating cells (SRC) in NSG mice; format: in vivo; conditions: for No. of mice with human cell chimerism/total number of mice transplanted: 12 to 13 weeks
Procedure: The frequency of human SRCs in PCs and the progeny of an equivalent number of CD34+ cells that were expanded under control conditions or in the presence of VPA were analyzed by limiting dilution analysis as described previously (Boitano et al., “Aryl Hydrocarbon Receptor Antagonists Promote the Expansion of Human Hematopoietic Stem Cells,” Science 329:1345-1348 (2010), which is hereby incorporated by reference in its entirety). Increasing numbers of PCs (50, 250, 500, 2,500, 5,000) or the progeny of an equivalent number of PCs cultured with VPA for 7 days or under control conditions were infused into NSG mice (n=111). The data from the limiting dilution experiments were pooled and analyzed by applying Poisson statistics to the single-hit model (n=111). The frequency was calculated using L-Calc software (StemCell Technologies Inc.) and plotted using ELDA software (bioinf.wehi.edu.au/software/elda/), available at the Walter and Eliza Hall Bioinformatics Institute of Medical Research. The tog fraction of non-responding values was converted to the percentage of negative mice using the following formula: percentage of negative mice=e log fraction.

NSG mice [3] = assay: Homing assay of re-isolated CD34+ cells in NSG mice; format: in vivo; conditions: 16 and 48 hours after infusion, versus control conditions
Procedure: The homing of re-isolated CD34+ cells (5×10^5/mouse) after treatment under control conditions or with VPA was performed as previously described (Shivtiel et at, “CD45 Regulates Homing and Engraftment of Immature Normal and Leukemic Human Cells in Transplanted Immunodeficient Mice,” Exp. Hematol. 39(12):1161-1170 (2011), which is hereby incorporated by reference in its entirety). The recipient NSG mice were purchased from the Jackson Laboratory and sublethally irradiated (300 cGy) 4 hours prior to infusion of the re-isolated CD34+ cells via the tail vein. Sixteen and 48 hours after their infusion, BM cells were harvested from 2 femurs and 2 tibias from each recipient mouse and analyzed by flow cytometry for the presence of human CD34+ cells using a human CD34-APC mAb. The homing of these cell populations was determined by quantitating the number of CD34+ cells per 10^6 acquired events in the BM of the recipient mice. […] Eight NSG mice received CD34+ cells cultured under control conditions, and 10 mice received CD34+ cells from VPA-containing cultures.

HDAC4 = assay: HDAC protein levels in CB-MNCs, Western blot densitometry; format: cell-based, human; conditions: 24 hr, SCR 8 μM, C433 80 μM, VPA 1.25 mM
From the text: Cellular proteins were separated by SDS-PAGE using Novex (Invitrogen) and transferred by iBlot (Invitrogen). The membranes were probed with mAbs against individual histone deacetylases (HDAC1, HDAC2, HDAC3, HDAC4, HDAC5, HDAC6, and β-actin; Cell Signaling Technology) and developed using a chemiluminescence system with HRP-conjugated secondary antibodies (Amersham Biosciences) according to the manufacturer's instructions.

CB CD34+ cells = assay: Migration assay towards SDF1 (Transwell); format: cell-based, human; conditions: SDF1 100 ng/ml, after 16 and 48 hours, versus control
Procedure: The migratory behavior of CB CD34+ cells was evaluated as previously described using 6.5 mm diameter, 5 μm pore Transwell plates (Costar) (Shivtiel et al., “CD45 Regulates Homing and Engraftment of Immature Normal and Leukemic Human Cells in Transplanted immunodeficient Mice,” Exp. Hematol. 39(12):1161-1170 (2011), which is hereby incorporated by reference in its entirety). The lower compartments of the Transwells were filled with StemLine II SF medium supplemented with 100 ng/ml of stromal-derived factor 1 (SDF1) (R&D Systems). The Transwell filters were coated with Matrigel for 30 minutes at 37° C. Re-isolated CD34+ cells (1×10^5) from the control and VPA-containing cultures were plated on the Matrigel-coated filters in 100 μl of Stemline II media. After 16 and 48 hours, cells that migrated to the lower compartment were enumerated, and the percentage of migration was calculated as follows: (number of cells migrated/total number of cells plated)×100.

Question: With `CCCC(CCC)C(=O)O` [VPA, valproic acid] as the molecule, how does the “Frequency of ALDH+ cells” value (ALDH activity; SC cultures) read?
Answer: Its value is 41.7 ± 3.3^A %.

Question: What about the “Frequency of ALDH+CD34+ cells” value (ALDH activity; SC cultures) of the same molecule?
Answer: The value was 26.1 ± 5.5^A %.

Question: And the “Frequency of ALDH+CD34+CD117+ cells” value (ALDH activity; SC cultures)?
Answer: The value was 29.4 ± 1.4^A %.

Question: And the “Frequency of ALDH+ cells” value (ALDH activity; SF cultures)?
Answer: Its value is 86.6 ± 7.4^A %.

Question: And the “Frequency of ALDH+CD34+ cells” value (ALDH activity; SF cultures)?
Answer: The value was 71.1 ± 3.1^A %.

Question: And the “Frequency of ALDH+CD34+CD117+ cells” value (ALDH activity; SF cultures)?
Answer: Its value is 51.3 ± 4.0^A %.

Question: And the teratoma formation (NSG mice [1])?
Answer: Its teratoma formation is “did not form teratomas; also recorded: neither control nor VPA treated CD34+ cells formed teratomas”.

Question: What about the “No. of SRCs generated per 1 × 10^6 CD34+ starting cells” value (NSG mice [2]; Poisson statistics, VPA 7 days) of the same molecule?
Answer: Its value is 32,258.

Question: What about the “increase in the number of SRCs compared with cells cultured under control conditions” value (NSG mice [2]; VPA treatment versus control cultures) of the same molecule?
Answer: The value was 299 fold.

Question: What about the “increase in the number of SRCs compared with PCs” value (NSG mice [2]; VPA treatment versus primary CB CD34+ cells) of the same molecule?
Answer: Its value is 36 fold.

Question: And the “No. of mice with human cell chimerism/total number of mice transplanted” value (NSG mice [2]; progeny of 50 CD34+ cells)?
Answer: Its value is 8/10.

Question: And the “No. of mice with human cell chimerism/total number of mice transplanted” value (NSG mice [2]; progeny of 250 CD34+ cells)?
Answer: Its value is 10/10.

Question: What about the “No. of mice with human cell chimerism/total number of mice transplanted” value (NSG mice [2]; progeny of 500 CD34+ cells) of the same molecule?
Answer: The value was 8/8.

Question: And the “No. of mice with human cell chimerism/total number of mice transplanted” value (NSG mice [2]; progeny of 2,500 CD34+ cells)?
Answer: Its value is 7/7.

Question: And the “No. of mice with human cell chimerism/total number of mice transplanted” value (NSG mice [2]; progeny of 5,000 CD34+ cells)?
Answer: Its value is 7/7.

Question: What about the “homing of CD34+ cells to the marrow of NSG mice” value (NSG mice [3]) of the same molecule?
Answer: The value was “increased horning of CD34+ cells”.

Question: And the “HDAC4 expression relative to b-ACTIN (%)” value (HDAC4)?
Answer: The value was 30.5 ± 9.3%.

Question: What about the “migration of CD34+ cells in response to SDF1” value (CB CD34+ cells) of the same molecule?
Answer: The value was “significantly greater number of CD34+ cells treated with VPA migrated in response to SDF1”.
